Test results as given in ChEMBL document CHEMBL1201862, “PubChem BioAssay data set” (2004).
Activity calls are given as the source filed them.

Columns and labels:
[1] = viability of uninfected HEp-2 cells – cell-based, HTS, cytotoxicity control for RSV inhibitor project, dose response (AID 2410); type: functional; settings: human respiratory syncytial virus
[2] = cells
[3] = test system: Vero; test: cells; type: functional, cell-based; settings: Chlorocebus sabaeus
[4] = target: T1, Genome polyprotein (Hepatitis C virus, UniProt Q2Q167); test: disruption of hepatitis C core self-association – biochemical, TR-FRET, dose response (AID 2159); set-up: species or system Hepacivirus hominis;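 further: blocks dimerization of HCV core protein measured by TR-FRET between tagged core106 pairs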
T1 sequence (Q2Q167 whole entry): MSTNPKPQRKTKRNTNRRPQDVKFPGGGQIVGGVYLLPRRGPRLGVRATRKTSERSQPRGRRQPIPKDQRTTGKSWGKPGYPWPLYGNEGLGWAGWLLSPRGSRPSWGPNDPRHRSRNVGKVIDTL

[5] = target: T2, Voltage-gated N-type calcium channel alpha-1B subunit/Amyloid beta A4 precursor protein-binding family A member 1 (Homo sapiens, UniProt Q00975+Q02410); type: protein assay
[6] = target: T3, Estrogen receptor (Homo sapiens, UniProt P03372);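 further: potency for inhibiting coactivator peptide recruitment to the receptor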
T3 sequence (P03372 whole entry): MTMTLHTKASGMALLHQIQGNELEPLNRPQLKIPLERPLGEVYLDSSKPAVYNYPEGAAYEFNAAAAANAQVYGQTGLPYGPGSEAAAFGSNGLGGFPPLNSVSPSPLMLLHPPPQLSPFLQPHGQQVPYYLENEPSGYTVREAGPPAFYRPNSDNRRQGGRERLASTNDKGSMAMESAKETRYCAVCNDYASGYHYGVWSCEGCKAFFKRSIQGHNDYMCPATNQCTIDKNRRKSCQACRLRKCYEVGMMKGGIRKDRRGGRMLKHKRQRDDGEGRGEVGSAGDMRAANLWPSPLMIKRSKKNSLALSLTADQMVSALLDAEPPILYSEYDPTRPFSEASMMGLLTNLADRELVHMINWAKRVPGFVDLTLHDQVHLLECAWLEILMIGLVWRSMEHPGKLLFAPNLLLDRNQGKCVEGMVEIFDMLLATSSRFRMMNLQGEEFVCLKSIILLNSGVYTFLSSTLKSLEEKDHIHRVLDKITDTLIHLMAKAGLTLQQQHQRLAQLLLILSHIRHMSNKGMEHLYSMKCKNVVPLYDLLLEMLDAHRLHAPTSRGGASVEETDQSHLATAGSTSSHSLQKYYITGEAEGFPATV

[7] = target: T2, Voltage-gated N-type calcium channel alpha-1B subunit/Amyloid beta A4 precursor protein-binding family A member 1; type: protein assay; remark: listed apart in the source
[8] = target: Large T antigen (Simian virus 40, UniProt P03070); type: functional, Betapolyomavirus macacae;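 further: Confirmatory-stage PubChem screen for compounds that inhibit SV40 T antigen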
[9] = target: DNA dC->dU-editing enzyme APOBEC-3G (Homo sapiens, UniProt Q9HC16); type: functional;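 further: Dose-response counterscreen measuring inhibition of APOBEC3G DNA deaminase activity, run while confirming APOBEC3A inhibitors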
[10] = target: DNA dC->dU-editing enzyme APOBEC-3A (Homo sapiens, UniProt P31941); test: Dose Response confirmation of small molecule APOBEC3A DNA Deaminase Inhibitors via a fluorescence-based single-stranded DNA deaminase assay. [Related pubchem assays (depositor defined):AID493011, AID493024]; type: functional
[11] = target: Eukaryotic translation initiation factor 4E (Mus musculus, UniProt P63073); test: blockers of eIF4G binding by eIF4E – biochemical, TR-FRET, dose response (AID 855); type: functional;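 further: potency for disrupting eIF4E binding to eIF4GI seen as loss of FRET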
[12] = A cytotoxicity screen of small molecule inhibitors of the PhoP region in Salmonella typhi identified in the primary screen. [Related pubchem assays: 1850, 1864, 1985 ]; type: functional
[13] = test system: Streptococcus; test: GAS UMAA2166 growth inhibition – luminescence, BacTiterGlo, counter-screen for streptokinase expression inhibitor project, dose response (AID 1915); type: functional, organism-based;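 further: potency for reduction of bacterial viability or growth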
[14] = test system: Streptococcus sp. 'group A'; test: Streptococcus pyogenes SK(-)GAS viability under kanamycin – luminescence, BacTiterGlo, confirmation, counter-screen for streptokinase expression inhibitor project, dose response (AID 1900); type: functional, organism-based
[15] = target: T4, Heat shock factor protein 1 (Mus musculus, UniProt P38532); test: decrease of HSF1-responsive luciferase luminescence – cell-based, NIH3T3, dose retest, confirmation (AID 2382); type: functional;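 further: NIH3T3 fibroblasts with HSF1-driven luciferase reporter stressed by proteasome inhibitor MG132; luminescence from HSF1-driven luciferase expression after 8 hours of MG132 stress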
T4 sequence (P38532 whole entry): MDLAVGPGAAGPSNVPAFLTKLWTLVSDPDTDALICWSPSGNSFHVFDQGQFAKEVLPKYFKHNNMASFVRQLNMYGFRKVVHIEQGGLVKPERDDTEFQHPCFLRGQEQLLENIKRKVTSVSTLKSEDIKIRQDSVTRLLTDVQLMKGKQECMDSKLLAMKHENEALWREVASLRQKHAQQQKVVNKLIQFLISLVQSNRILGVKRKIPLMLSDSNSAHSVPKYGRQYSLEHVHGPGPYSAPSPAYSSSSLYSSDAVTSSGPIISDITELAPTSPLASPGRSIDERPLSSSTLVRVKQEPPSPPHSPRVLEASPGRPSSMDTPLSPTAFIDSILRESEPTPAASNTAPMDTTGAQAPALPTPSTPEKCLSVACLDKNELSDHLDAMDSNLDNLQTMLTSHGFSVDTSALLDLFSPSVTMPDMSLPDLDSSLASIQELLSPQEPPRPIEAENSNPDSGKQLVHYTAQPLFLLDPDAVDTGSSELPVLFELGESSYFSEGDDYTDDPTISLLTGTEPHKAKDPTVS

[16] = Trypanosoma cruzi growth suppression in host cells – NIH3T3 host cells, beta-gal luminescence, confirmation (AID 2044); type: functional, cell-based;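 further: intracellular parasites grown in NIH/3T3 mouse fibroblasts as host cells; luminescent beta-galactosidase reporter signal from transgenic T. cruzi replicating inside host cells; inhibitors lower the luminescence signal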
[17] = NIH3T3 cell viability loss – ATP luminescence, mouse fibroblasts, counter-screen, dose response (AID 2010); type: functional, cell-based;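 further: cells exposed to compound for about 90 hours before reading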
[18] = target: T5, CAAX prenyl protease 2 (Saccharomyces cerevisiae S288c, UniProt Q03530); type: biochemical
T5 sequence (Q03530 whole entry): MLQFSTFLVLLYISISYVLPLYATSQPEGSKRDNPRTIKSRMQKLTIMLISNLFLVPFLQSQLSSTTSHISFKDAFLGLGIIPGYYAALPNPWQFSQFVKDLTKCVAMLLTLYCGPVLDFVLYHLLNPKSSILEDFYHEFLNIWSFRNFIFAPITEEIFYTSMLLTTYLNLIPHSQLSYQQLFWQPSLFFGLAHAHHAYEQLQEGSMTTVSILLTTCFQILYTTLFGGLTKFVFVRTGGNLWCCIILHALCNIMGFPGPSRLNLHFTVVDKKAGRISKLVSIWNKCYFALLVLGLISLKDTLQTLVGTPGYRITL

[19] = target: T6, Kappa-type opioid receptor (Homo sapiens, UniProt P41145); type: functional
[20] = target: T7, Delta-type opioid receptor (Homo sapiens, UniProt P41143); test: HTS Image-Based Screen for Antagonists of the DOR Receptor. [Related pubchem assays (depositor defined):AID1777, AID1785, AID1786, AID2133]; type: functional
[21] = target: T6, Kappa-type opioid receptor; type: functional; remark: listed apart in the source
[22] = target: Beta-galactosidase (Escherichia coli, UniProt Q8VNN2); type: functional
[23] = target: Voltage-dependent T-type calcium channel subunit alpha-1H (Homo sapiens, UniProt O95180); type: functional;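 further: channel activity triggered by adding a high calcium stimulation buffer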
[24] = target: Mu-type opioid receptor (Homo sapiens, UniProt P35372); test: HTS Image-Based Screen for Agonists of the MOR Receptor. [Related pubchem assays (depositor defined):AID1777, AID1785, AID1786, AID2133]; type: functional;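 further: imaging of beta-arrestin GFP recruitment into spots after receptor activation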
[25] = target: T7, Delta-type opioid receptor; test: HTS Image-Based Screen for Agonists of the DOR Receptor. [Related pubchem assays (depositor defined):AID1777, AID1786, AID2133]; type: functional
[26] = target: Phospholipase A2 (Homo sapiens, UniProt P04054); type: functional;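 further: confirmatory dose-response counterscreen on phospholipase A2, testing hits that came from an ultra-high-throughput screen for ATG4B inhibitors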
[27] = target: Alkaline phosphatase, placental type (Homo sapiens, UniProt P05187); test: human placental alkaline phosphatase inhibition – biochemical, luminescence, confirmation (AID 1512); type: functional
[28] = target: T8, Alkaline phosphatase, tissue-nonspecific isozyme (Homo sapiens, UniProt P05186); test: potency against alkaline phosphatase TNAP – biochemical, luminescent, dose response, SAR follow-up (AID 1056)
T8 sequence (P05186 whole entry): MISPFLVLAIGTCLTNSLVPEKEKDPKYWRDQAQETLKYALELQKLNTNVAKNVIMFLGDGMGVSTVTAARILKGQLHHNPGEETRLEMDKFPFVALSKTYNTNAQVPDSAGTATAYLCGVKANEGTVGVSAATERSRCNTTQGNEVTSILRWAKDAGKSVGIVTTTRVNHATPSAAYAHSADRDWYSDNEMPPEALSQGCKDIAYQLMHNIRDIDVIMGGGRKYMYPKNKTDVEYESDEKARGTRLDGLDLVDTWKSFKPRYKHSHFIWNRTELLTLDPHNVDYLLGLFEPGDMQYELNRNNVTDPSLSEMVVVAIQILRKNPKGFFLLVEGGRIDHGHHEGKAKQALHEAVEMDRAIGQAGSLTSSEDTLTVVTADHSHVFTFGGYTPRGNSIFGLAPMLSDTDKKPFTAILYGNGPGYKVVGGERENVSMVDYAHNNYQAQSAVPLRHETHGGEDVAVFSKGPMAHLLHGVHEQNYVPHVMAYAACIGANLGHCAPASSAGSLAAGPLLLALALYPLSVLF

Sequence of Eukaryotic translation initiation factor 4E (P63073 whole entry): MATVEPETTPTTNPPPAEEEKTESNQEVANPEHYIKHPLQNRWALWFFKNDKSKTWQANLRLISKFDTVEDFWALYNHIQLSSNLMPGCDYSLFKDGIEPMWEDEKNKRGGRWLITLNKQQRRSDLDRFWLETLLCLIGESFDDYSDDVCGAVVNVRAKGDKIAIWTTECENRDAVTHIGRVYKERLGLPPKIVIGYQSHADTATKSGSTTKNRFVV
T2 sequence (Q00975 whole entry): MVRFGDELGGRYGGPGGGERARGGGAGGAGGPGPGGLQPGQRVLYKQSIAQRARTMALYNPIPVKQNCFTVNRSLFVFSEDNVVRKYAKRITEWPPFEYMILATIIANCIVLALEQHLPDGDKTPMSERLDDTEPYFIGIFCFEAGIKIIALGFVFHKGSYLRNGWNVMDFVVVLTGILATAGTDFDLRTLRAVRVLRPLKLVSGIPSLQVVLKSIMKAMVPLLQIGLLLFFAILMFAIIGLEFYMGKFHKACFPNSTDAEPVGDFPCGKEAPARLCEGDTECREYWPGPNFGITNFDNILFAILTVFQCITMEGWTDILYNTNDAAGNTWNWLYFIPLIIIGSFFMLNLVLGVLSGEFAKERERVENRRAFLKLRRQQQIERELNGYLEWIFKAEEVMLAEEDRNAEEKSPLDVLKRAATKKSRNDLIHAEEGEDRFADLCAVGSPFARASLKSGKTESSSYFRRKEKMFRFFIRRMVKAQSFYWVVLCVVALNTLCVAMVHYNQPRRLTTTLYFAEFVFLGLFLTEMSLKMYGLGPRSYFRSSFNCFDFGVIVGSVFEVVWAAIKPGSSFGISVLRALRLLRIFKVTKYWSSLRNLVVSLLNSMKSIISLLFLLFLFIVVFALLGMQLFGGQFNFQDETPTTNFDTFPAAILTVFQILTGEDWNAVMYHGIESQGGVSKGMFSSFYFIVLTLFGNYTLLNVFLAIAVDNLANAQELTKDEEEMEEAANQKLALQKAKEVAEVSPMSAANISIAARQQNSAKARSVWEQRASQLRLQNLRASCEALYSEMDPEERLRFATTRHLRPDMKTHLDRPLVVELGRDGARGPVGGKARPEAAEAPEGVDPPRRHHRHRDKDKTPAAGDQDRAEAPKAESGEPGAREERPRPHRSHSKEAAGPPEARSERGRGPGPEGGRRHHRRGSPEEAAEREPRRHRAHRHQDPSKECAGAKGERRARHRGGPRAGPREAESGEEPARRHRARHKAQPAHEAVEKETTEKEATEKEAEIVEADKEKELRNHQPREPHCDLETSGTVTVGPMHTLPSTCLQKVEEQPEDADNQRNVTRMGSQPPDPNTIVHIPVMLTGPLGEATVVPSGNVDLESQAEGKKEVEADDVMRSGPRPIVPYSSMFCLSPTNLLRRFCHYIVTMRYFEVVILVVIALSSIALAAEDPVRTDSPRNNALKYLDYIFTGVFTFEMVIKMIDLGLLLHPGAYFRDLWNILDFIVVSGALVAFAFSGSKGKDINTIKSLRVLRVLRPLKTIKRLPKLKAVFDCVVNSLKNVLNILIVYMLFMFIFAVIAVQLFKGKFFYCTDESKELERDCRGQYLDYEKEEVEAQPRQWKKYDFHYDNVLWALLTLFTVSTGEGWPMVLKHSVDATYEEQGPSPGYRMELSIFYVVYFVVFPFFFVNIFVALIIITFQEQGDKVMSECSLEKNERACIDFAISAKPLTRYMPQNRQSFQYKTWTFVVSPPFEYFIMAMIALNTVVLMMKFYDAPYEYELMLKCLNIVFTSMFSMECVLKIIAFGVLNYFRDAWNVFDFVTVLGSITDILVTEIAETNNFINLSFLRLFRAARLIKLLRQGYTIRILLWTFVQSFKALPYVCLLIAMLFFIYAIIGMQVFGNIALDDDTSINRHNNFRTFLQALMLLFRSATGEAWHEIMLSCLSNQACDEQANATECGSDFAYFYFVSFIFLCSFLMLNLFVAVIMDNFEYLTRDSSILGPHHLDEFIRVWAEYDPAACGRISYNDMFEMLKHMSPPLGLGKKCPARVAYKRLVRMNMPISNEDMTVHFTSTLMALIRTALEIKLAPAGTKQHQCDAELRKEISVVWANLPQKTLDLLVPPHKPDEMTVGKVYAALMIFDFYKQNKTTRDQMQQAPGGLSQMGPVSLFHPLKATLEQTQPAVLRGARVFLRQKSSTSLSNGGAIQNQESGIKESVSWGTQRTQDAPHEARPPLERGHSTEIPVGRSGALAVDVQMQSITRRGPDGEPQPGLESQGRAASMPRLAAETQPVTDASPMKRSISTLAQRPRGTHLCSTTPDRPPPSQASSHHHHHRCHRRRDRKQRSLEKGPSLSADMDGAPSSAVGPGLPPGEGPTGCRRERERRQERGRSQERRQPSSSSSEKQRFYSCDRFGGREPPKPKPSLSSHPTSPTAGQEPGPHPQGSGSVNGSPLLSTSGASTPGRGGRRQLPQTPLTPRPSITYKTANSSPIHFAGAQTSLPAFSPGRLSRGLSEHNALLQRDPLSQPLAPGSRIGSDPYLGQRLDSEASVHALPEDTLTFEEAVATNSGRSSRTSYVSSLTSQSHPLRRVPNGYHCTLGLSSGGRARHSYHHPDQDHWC
T2 sequence (Q02410 whole entry): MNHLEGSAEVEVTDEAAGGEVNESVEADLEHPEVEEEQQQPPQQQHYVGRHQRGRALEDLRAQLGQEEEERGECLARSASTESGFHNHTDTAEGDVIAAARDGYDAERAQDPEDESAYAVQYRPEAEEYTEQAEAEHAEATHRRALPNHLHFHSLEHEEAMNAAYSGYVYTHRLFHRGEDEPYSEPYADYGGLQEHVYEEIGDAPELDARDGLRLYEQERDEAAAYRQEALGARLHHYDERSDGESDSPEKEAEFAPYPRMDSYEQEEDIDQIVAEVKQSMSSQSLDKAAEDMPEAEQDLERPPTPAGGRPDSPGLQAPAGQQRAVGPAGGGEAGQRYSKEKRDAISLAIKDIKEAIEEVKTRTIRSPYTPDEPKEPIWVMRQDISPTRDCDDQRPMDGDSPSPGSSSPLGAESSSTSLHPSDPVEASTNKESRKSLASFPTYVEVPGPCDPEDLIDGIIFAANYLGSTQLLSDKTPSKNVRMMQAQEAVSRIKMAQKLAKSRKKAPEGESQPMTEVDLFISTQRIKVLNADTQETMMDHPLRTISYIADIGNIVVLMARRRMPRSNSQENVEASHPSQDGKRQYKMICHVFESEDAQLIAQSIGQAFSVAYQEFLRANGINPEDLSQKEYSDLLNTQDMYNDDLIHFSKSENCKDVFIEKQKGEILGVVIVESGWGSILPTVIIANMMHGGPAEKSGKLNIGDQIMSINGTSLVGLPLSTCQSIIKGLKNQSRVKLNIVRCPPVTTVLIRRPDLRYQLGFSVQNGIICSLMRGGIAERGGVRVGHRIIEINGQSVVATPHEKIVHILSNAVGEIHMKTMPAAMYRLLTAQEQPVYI
Sequence of Alkaline phosphatase, placental type (P05187 whole entry): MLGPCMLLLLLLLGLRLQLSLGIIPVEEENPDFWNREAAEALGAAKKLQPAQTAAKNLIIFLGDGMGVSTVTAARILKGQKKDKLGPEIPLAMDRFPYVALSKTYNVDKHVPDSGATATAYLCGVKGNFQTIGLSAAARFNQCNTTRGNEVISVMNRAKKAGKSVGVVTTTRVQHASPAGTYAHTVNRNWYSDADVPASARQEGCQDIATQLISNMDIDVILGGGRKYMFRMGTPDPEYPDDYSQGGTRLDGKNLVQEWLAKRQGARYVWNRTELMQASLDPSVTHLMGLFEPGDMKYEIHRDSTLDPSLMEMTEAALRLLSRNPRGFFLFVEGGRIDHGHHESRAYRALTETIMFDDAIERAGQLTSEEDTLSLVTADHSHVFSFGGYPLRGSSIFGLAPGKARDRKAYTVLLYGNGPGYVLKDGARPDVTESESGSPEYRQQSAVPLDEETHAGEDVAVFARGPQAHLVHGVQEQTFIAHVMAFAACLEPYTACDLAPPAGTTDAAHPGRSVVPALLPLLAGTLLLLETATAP
T7 sequence (P41143 whole entry): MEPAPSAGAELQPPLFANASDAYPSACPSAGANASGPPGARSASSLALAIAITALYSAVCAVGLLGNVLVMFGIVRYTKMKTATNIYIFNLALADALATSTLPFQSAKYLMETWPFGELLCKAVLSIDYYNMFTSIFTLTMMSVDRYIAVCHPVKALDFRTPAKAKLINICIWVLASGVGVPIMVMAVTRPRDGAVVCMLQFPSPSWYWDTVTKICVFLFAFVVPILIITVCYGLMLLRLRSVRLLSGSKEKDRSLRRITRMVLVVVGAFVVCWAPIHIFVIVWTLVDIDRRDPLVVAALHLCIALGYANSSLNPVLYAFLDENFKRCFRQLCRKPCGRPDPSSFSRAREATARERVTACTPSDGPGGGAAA
Sequence of DNA dC->dU-editing enzyme APOBEC-3G (Q9HC16 whole entry): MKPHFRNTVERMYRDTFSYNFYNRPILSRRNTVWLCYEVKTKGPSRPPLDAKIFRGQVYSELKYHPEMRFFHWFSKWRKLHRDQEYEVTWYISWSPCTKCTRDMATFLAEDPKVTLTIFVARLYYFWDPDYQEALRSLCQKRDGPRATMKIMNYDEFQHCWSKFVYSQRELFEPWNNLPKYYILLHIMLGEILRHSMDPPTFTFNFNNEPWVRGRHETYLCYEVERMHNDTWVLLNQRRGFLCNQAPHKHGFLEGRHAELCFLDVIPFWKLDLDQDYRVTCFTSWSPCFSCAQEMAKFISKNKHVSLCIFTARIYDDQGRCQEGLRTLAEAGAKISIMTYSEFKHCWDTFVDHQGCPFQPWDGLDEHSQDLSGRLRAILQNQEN
Sequence of DNA dC->dU-editing enzyme APOBEC-3A (P31941 whole entry): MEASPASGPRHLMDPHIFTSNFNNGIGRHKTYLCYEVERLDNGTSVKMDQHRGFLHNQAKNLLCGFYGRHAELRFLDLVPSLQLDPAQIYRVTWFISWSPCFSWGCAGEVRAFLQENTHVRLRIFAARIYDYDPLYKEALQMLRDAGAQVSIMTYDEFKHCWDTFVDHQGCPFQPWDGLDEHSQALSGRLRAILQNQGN
Sequence of Phospholipase A2 (P04054 whole entry): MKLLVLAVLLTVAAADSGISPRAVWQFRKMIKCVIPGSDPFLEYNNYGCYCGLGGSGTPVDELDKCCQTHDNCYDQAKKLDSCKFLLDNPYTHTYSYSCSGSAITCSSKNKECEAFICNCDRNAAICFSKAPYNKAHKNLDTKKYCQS

Structure (SMILES): O=C(NC(Cc1c[nH]c2ccccc12)C(=O)Nc1ccc(F)cc1)c1cccs1 (stereo unspecified)
- CC50 [1]: 15.6 µM (active)
- IC50 [2]: 12.8 µM (active)
- IC50 [3]: 8.41 µM (active)

Structure (SMILES): Cc1cccc(N2CSC3=C(C#N)C(c4ccc(C)o4)CC(=O)N3C2)c1 (stereo unspecified)
- IC50 [4]: > 49.8 µM (not active)
- IC50 [5]: 6.47 µM (active)
- IC50 [6]: 3.55 µM (active)
- IC50 [7]: 22.3 µM (active)
- IC50 [8]: 11.4 µM (active)

Structure (SMILES): COc1ccc(CCCC(=O)NC2CCCCC2C)c(C)c1 (stereo unspecified)
- IC50 [9]: 2.99 µM (active)
- IC50 [10]: 3.49 µM (active)

Structure (SMILES): Cc1cccnc1NC(=O)CN1C(=O)COc2ccc(Cl)cc21
- IC50 [9]: 1.65 µM (active)
- IC50 [10]: 1.91 µM (active)

Structure (SMILES): CCn1c(C)c(C(C)=O)c(N2CCN(C(=O)c3ccco3)CC2)nc1=S
- IC50 [11]: > 64 µM (inactive)

Structure (SMILES): Cc1cc(C)nc(NC(=S)Nc2cccc(Cl)c2Cl)c1
- IC50 [5]: 1.27 µM (active)
- IC50 [7]: > 50 µM (inactive)

Structure (SMILES): CC(C)(C)c1ccc(C(=O)NNC(=O)Cc2ccccc2)cc1
- EC50 [12]: > 50 µM (active)

Structure (SMILES): CCOc1ccccc1OCc1nn2c(COc3ccccc3)nnc2s1
- IC50 [11]: > 64 µM (inactive)

Structure (SMILES): CCc1cccc2c(C(=O)COC(=O)c3ccc([N+](=O)[O-])s3)c[nH]c12
- EC50 [13]: 1.03 µM (active)
- EC50 [14]: 0.497 µM (active)
- EC50 [12]: > 50 µM (active)
- EC50 [15]: 7.75 µM (active)
- EC50 [16]: 0.739 µM (active)
- EC50 [17]: > 30 µM (not active)

Structure (SMILES): Cc1cc(=O)n2ccccc2c1C#N
- AC50 [18]: 24.9 µM (active)

Structure (SMILES): Cn1c2ccccc2c(=O)c2c(=O)n(Cc3ccco3)c(COc3ccccc3)nc21
- CC50 [1]: 32.8 µM (active)
- IC50 [2]: 21.2 µM (active)
- EC50 [16]: 0.123 µM (active)
- EC50 [17]: > 60 µM (not active)

Structure (SMILES): O=C(Nc1nnc(-c2cccs2)o1)c1cccc(Oc2ccccc2)c1
- IC50 [19]: 9.8 µM (active)
- IC50 [20]: > 32 µM (inactive)
- IC50 [21]: > 32 µM
- EC50 [22]: > 31.5 µM (inactive)
- EC50 [23]: 3.02 µM (active)
- EC50 [24]: > 32 µM (inactive)
- EC50 [25]: > 32 µM (inactive)

Structure (SMILES): O=C(O)c1cc(-c2ccc(/C=C3/SC(=S)N(Cc4ccccc4)C3=O)o2)ccc1Cl
- IC50 [11]: 15.1 µM (active)

Structure (SMILES): N#Cc1c(-c2cccc(Br)c2)cc(-c2ccco2)[nH]c1=O
- IC50 [26]: 11.7 µM (active)

Structure (SMILES): Cc1cc(C(=O)NCc2ccc(O)c(O)c2)c(C)o1
- IC50 [27]: > 100 µM (inactive)
- IC50 [28]: 12.5 µM (active)

Structure (SMILES): O=C(CNC1CCCCC1)c1ccc(O)c(O)c1
- IC50 [27]: 18.8 µM (active)
- IC50 [28]: > 100 µM (inactive)
